The source of these data is PubChem BioAssay (NCI).

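Step 1: Grow cells in 96-well plates. Step 2: Expose to compound for 48 hours at 5 concentrations. Step 3: Interpolate endpoints linearly; if unreached, use highest concentration. TGI: total growth inhibition.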 Where only a bound is given, the exact number is not on record here.

Some test systems named below: OVCAR-5 ovarian; SK-MEL-28 melanoma; IGROV1 ovarian; HS 578T breast; OVCAR-8 ovarian; LOX IMVI melanoma; TK-10 renal; MCF7 breast; UO-31 renal; OVCAR-4 ovarian; CAKI-1 renal; BT-549 breast; OVCAR-3 ovarian; UACC-257 melanoma; RXF 393 renal; K-562 leukemia; HT29 colon; HOP-62 NSCLC; SK-OV-3 ovarian; SF-295 CNS.
Holding throughout (assay): NCI anticancer screen, dose series, 48 h

In the case of `COC(=O)/C=C\Sc1ccn(/C=C\C(=O)OC)c(=S)n1`, the TGI is > 100 µM with OVCAR-5 ovarian; > 100 µM with SK-MEL-28 melanoma; 35.2 µM in the experiment with IGROV1 ovarian; 78.9 µM with HS 578T breast; 38.1 µM in the experiment with OVCAR-8 ovarian; 9.35 µM in the experiment with LOX IMVI melanoma. For the same compound, the TGI in the experiment on TK-10 renal is 51.1 µM; in the experiment with MCF7 breast, 36.5 µM; with UO-31 renal, 50.5 µM; in the experiment on OVCAR-4 ovarian, 35.3 µM; in the experiment on CAKI-1 renal, 31.9 µM; in the experiment on BT-549 breast, 44.9 µM. The TGI with OVCAR-3 ovarian is 26.7 µM; in the experiment on UACC-257 melanoma, > 100 µM; with RXF 393 renal it was 23.3 µM; with K-562 leukemia it was > 100 µM; with HT29 colon, 52.9 µM; in the experiment on HOP-62 NSCLC, 32.4 µM.
For `CC1(C)OP23(NC(=O)OC2(C(F)(F)F)c2ccccc2O3)OC1(C)C` (stereo unspecified), the TGI in the experiment on SK-MEL-28 melanoma, with OVCAR-8 ovarian, with SK-OV-3 ovarian, with LOX IMVI melanoma, in the experiment with TK-10 renal and with UO-31 renal was > 100 µM throughout. Besides, the TGI with OVCAR-4 ovarian, with OVCAR-3 ovarian, with UACC-257 melanoma, in the experiment with RXF 393 renal, with K-562 leukemia and in the experiment on HT29 colon was > 100 µM each time. Further, the TGI with SF-295 CNS was > 100 µM.
As for `CN(C)c1ccc(N2C(=S)SC(=Nc3ccccc3)C2=Nc2ccccc2)cc1`, the TGI in the experiment with OVCAR-5 ovarian, with SK-MEL-28 melanoma, in the experiment on IGROV1 ovarian, with HS 578T breast, with OVCAR-8 ovarian and in the experiment with SK-OV-3 ovarian was > 100 µM each time. Also, the TGI in the experiment on MCF7 breast, with UO-31 renal, in the experiment with OVCAR-4 ovarian, in the experiment on CAKI-1 renal, in the experiment with BT-549 breast and with OVCAR-3 ovarian was > 100 µM each time. For the same compound, the TGI in the experiment on RXF 393 renal, with K-562 leukemia, with SF-295 CNS and with HOP-62 NSCLC was > 100 µM in each case.
Turning to `O=C(CCCn1cnc([N+](=O)[O-])n1)NCCn1ccnc1[N+](=O)[O-]`, the TGI in the experiment on OVCAR-5 ovarian, in the experiment with SK-MEL-28 melanoma, in the experiment on IGROV1 ovarian, in the experiment with HS 578T breast, in the experiment on SK-OV-3 ovarian and with LOX IMVI melanoma was > 100 µM throughout. In addition, the TGI in the experiment with TK-10 renal, with MCF7 breast, in the experiment on UO-31 renal, in the experiment with OVCAR-4 ovarian, with CAKI-1 renal and in the experiment with BT-549 breast was > 100 µM each time. In addition, the TGI in the experiment on OVCAR-3 ovarian, in the experiment on UACC-257 melanoma, in the experiment on RXF 393 renal, in the experiment with K-562 leukemia, in the experiment on HT29 colon and in the experiment on SF-295 CNS was > 100 µM each time. The TGI in the experiment with HOP-62 NSCLC is > 100 µM.
